Where two headings read alike, the source gives them in different places.
How the values were obtained:
[1] = Pharmacokinetic (PK) screening (i.v.) in male CD1 mice; assay type: in vivo, mouse; conditions: male, CD1, mouse, plasma, iv, 1 mg/kg, I.V. 1 mg/kg dose, plasma
Method: In this example, the intravenous PK profile of several PPARδ agonists disclosed herein in male CD1 mice was determined. Similar methods can be used to analyze other compounds provided herein. All compounds were administered separately to CD1 mice at 1 mg/kg (i.v.), except the comparator compound to 2c was administered at 3 mg/kg (i.v.), as noted below.

[2] = test system: DMD human skeletal muscle cells; assay: Mitochondrial biogenesis (BrdU labeling); assay type: cell-based; conditions: DMD patient cells, treated from day 4 of differentiation, FIG. 2
Method: DMD human skeletal muscle cells were plated into 96 well plates. Media was changed to Differentiation Medium and cells were allowed to differentiate for 7 days. […] Three days later cells were labeled with bromodeoxyuridine (BrdU) in culture media for 2 hours. Following the incubation, cells were washed, and then incubated with anti-BrdU antibody overnight at 4° C. The next day, samples were washed incubated with anti-mouse IgG HRP for 45 min at 37° C., and then washed. Optical density was measured at 450 nm wavelength on a SpectraMax M5 (Molecular Devices).
Data was analyzed in Graph Pad Prism. Normality of distribution was determined by D'Agostino-Pearson omnibus normality test. If the samples were normally distributed, they were analyzed by One-Way ANOVA followed by a post hoc Dunnett's test vs DMSO control cells or unpaired two tailed T-test. If the samples were not normally distributed, then a Kruskal-Wallis test was used to determine significance.

[3] = test system: mdx mouse; assay: Endurance running assay (treadmill) in mdx mouse model of Duchenne Muscular Dystrophy; assay type: in vivo; conditions: mdx mice, 10 or 30 mg per kg PO, 34-35 days, FIG. 3
Excerpt: PPARδ is activated in response to exercise where it will elicit an increase in fatty acid utilization. Duchenne Muscular Dystrophy is a progressive, early-onset degenerative muscle disease with associated muscle function deficits resulting from the loss of the protein dystrophin. Fatty acid metabolism and altered mitochondrial function are reported to be an aspect of the disease.
C57BL/10ScSn-Dmdmdx/J and C57BL/10ScSnJ mice ˜5-7 weeks of age were received and housed singly in polycarbonate cages. Animals were fed standard chow and had access to feed and water at all times ad libitum. […] Vehicle was dosed for control groups. All the animals were dosed by oral gavage (PO) for 34-35 days. The mice were dosed at 8 AM on the last in-life study day with the necropsy started 2 hours after the final dose.
Mice were acclimated to a moving belt treadmill in a series of acclimation runs before evaluation for overall endurance at a set maximal speed. Each mouse was run in a separate lane that contained an electric stimulating grid. The number of visits to the electric stimulating grid and the number of shocks each animal received were recorded by the instrument and a technician evaluated the animal during the run to determine the time and distance to exhaustion. The maximum speed for all the three endurance runs was capped at 20 m/min. […]

[4] = test system: mdx mouse muscle; assay: Histology pathology assessment of muscle in mdx mice; assay type: in vivo
Excerpt: Similar to the muscle pathology in Duchenne Muscular Dystrophy, mdx mice have dystrophic pathologies in skeletal muscle that is apparent soon after birth. Key aspects of this phenotype evident by pathology are the loss of myofibers through apoptosis/necrosis, evidence of regenerating muscle fibers, infiltrating immune cells, and increased muscle fibrosis.
Animals and dosing were as previously described. See Example 4.
Quadriceps, gastrocnemius and tibialis anterior muscles were harvested at necropsy, and fixed by immersion in 10% neutral buffered formalin and embedded in paraffin. Tissues were sectioned at […] from each block and slides were evaluated by a board certified veterinary pathologist. Histopathologic evaluation included qualitative and semi-quantitative evaluation for myofiber necrosis, inflammation, myofiber regeneration and interstitial fibrosis, as outlined in Tables 1, 2, and 3, respectively.
(§1) Diaphragm weights, histology scores and immunofluorescence data were tested using a parametric test if normality was confirmed by Shapiro-Wilk normality test (unpaired t-test for 2 groups or One way ANOVA followed by post hoc Dunn's multiple comparison testing versus the mdx vehicle group for 3 groups) and a Mann-Whitney test (2 groups) or Kruskal-Wallis One-Way ANOVA (non-parametric) followed by post hoc Dunn's multiple comparison testing versus the mdx vehicle group (3 groups) if the data were not normally distributed.

[5] = test system: mdx mouse quadriceps muscle; assay: Immunofluorescent (IgM) assessment of muscle necrosis in mdx mice; assay type: in vivo; conditions: IgM immunofluorescence, FIG. 5
Method: Precut paraffin section slides were deparaffinized and incubated with AlexaFluor 488 conjugated wheat germ agglutinin followed by an incubation with Alexa 568 conjugated anti-mouse IgM (abcam, Product #ab175702). Slides were washed and mounted with coverslips using ProLong Diamond Antifade Mountant with DAPI. Imaging was performed on a Nikon fluorescent microscope using a 40× objective and composite images were stitched together using NIS Elements Software, V4.4 (Nikon, Tokyo, Japan). Analysis was completed using Image J 1.50b, Java 1.8.0_60 (64 bit).
as §1
Quadriceps muscle sections were labeled fluorescently to detect IgM antibody accumulation within damaged myofibers, an indication of loss of myofiber integrity and active necrosis. Each muscle section was imaged in its entirety and the number and size of necrotic regions was measured. […]

[6] = test system: mdx mouse diaphragm; assay: Diaphragm fibrosis by hydroxyproline assay in mdx mice; assay type: in vivo; conditions: FIG. 10
Method: Diaphragm samples were harvested carefully and the central tendon was cut away to ensure hydroxyproline signal was derived from muscle and not collagen-rich tendon. Hydroxyproline assay was performed according to the manufacturers' instructions (Sigma-Aldrich Hydroxyproline Assay Kit). Final values were calculated as follows: […]
as §1
Diaphragms were evaluated for fibrosis by measuring hydroxyproline, an amino acid unique to collagen, in digested muscle. Mdx mice were confirmed to have increased fibrosis versus non-dystrophic control mice (FIG. 9).

[7] = test system: Sprague-Dawley rat acute kidney injury; assay: Ischemia-reperfusion kidney injury in rats, plasma creatinine; assay type: in vivo; conditions: 30 mg/kg orally 4 hours after surgery, blood 24 hours after reperfusion, FIG. 11
Method: Sprague-Dawley male rats approximately 280-300 g, with ad libitum access to standard feed and water were used in these experiments. Rats were anesthetized with isoflurane and placed ventrally on a temperature controlled heated surgical platform. A skin incision was made on the dorsal surface, exposing both kidneys through flank incisions. Vascular clips were applied to both renal pedicles and occlusion lasted 45 minutes. After 45 min, the clips were removed, kidneys were monitored for successful reperfusion, and surgical sites were sutured. The sham group was subjected to similar surgical procedures, except that the occluding clamps were not applied. Four independent studies, testing each compound were performed. Compounds were formulated as a fresh daily suspension in 0.25% sodium carboxymethyl-cellulose, 0.25% Tween-80 in purified water. Compounds were dosed orally at 30 mg/kg 4 hours after animals awoke from surgery and sham surgery and IRI control animals were similarly dosed with vehicle.
Twenty-four (24) hours after reperfusion, blood was collected in K2 EDTA tubes by retro-orbital bleeding from all groups under mild isoflurane anesthesia. Plasma was separated by centrifugation at 3000 rpm for 10 minutes at 4° C. Plasma creatinine was analyzed using a fully automated clinical biochemistry analyzer (Siemens Dimension® Xpand® Plus Integrated Chemistry System)
Creatinine was tested for normal distribution in all groups via a D'Agostino-Pearson omnibus normality test and a Shapiro-Wilk normality test. Normally distributed data was subjected to an unpaired, two-tailed t test. Non-normally distributed data was subjected to a Mann-Whitney test (non-parametric). Statistical significance is determined by p<0.05 of IRI-vehicle compared to compound treated groups.

- clearance ([1]; read-out: CL): 25 mL/min/kg
- clearance ([1]; read-out: High or Low CL): < 85 mL/min/kg
SMILES: Cc1cnc(-c2ccc(C(F)(F)F)cc2)n1Cc1ccccc1OCCC[C@@H](C)CC(=O)O [Compound 2d, (R)-3-methyl-6-(2-((5-methyl-2-(4-(trifluoromethyl)phenyl)-1H-imidazol-1-yl)methyl)phenoxy)hexanoic acid]
- Mitochondrial biogenesis [2]: increased in a dose-dependent manner
- Treadmill running distance [3]: increased distance over mdx vehicle treated group mice
- Pathology scored necrosis, quadriceps ([4]; 10 or 30 mg per kg PO, 34-35 days, FIG. 4): Decreased necrosis
- Inflammation, quadriceps muscle ([4]; FIG. 6): Decreased inflammation
- Quadriceps muscle regeneration ([4]; FIG. 7): increases
- Diaphragm muscle necrosis ([4]; FIG. 8): reduced diaphragm necrosis
- Necrotic region size, quadriceps [5]: decreased
- Diaphragm fibrosis (hydroxyproline) [6]: reduced fibrosis
- Plasma creatinine [7]: reduce plasma creatinine

From patent publication US10399958B2, “PPAR agonists, compounds, pharmaceutical compositions, and methods of use thereof” (Mitobridge, Inc., priority 2015, dated 2019)
